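48-hour exposure; five concentrations; linearly interpolated endpoints. GI50: concentration for 50% inhibition of growth.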 Active and inactive are the calls of the source. Cut-off read from the data, not from the text of the source: active = GI50 up to about 1.1 µM and inactive = higher.
Tests used:
Assay in all cases: growth of human tumour cells (NCI), 48 h
SK-MEL-5 = tested on: SK-MEL-5
PC-3 = tested on: PC-3
SW-620 = tested on: SW-620
MCF7 = tested on: MCF7
SF-268 = tested on: SF-268
TK-10 = tested on: TK-10
SK-MEL-28 = tested on: SK-MEL-28
LOX IMVI = tested on: LOX IMVI
KM12 = tested on: KM12
UO-31 = tested on: UO-31
HCT-116 = tested on: HCT-116
OVCAR-8 = tested on: OVCAR-8
MDA-MB-231 = tested on: MDA-MB-231
U-251 = tested on: U-251
M14 = tested on: M14
UACC-62 = tested on: UACC-62
RPMI-8226 = tested on: RPMI-8226
SN12C = tested on: SN12C
MDA-N = tested on: MDA-N
NCI-H23 = tested on: NCI-H23
HOP-62 = tested on: HOP-62
IGROV-1 = tested on: IGROV-1
CCRF-CEM = tested on: CCRF-CEM
Malme-3M = tested on: Malme-3M
OVCAR-5 = tested on: OVCAR-5
NCI-H522 = tested on: NCI-H522
MDA-MB-435 = tested on: MDA-MB-435
NCI-H460 = tested on: NCI-H460
OVCAR-3 = tested on: OVCAR-3
786-0 = tested on: 786-0
COLO 205 = tested on: COLO 205
A498 = tested on: A498
CAKI-1 = tested on: CAKI-1
UACC-257 = tested on: UACC-257
HT-29 = tested on: HT-29
SF-539 = tested on: SF-539
OVCAR-4 = tested on: OVCAR-4
HCC 2998 = tested on: HCC 2998
Hs-578T = tested on: Hs-578T
ACHN = tested on: ACHN
HOP-92 = tested on: HOP-92
SK-MEL-2 = tested on: SK-MEL-2
HCT-15 = tested on: HCT-15
SF-295 = tested on: SF-295
DU-145 = tested on: DU-145
HL-60 = tested on: HL-60
MOLT-4 = tested on: MOLT-4
SR = tested on: SR
T47D = tested on: T47D
EKVX = tested on: EKVX
A549 = tested on: A549
SNB-75 = tested on: SNB-75
SNB-19 = tested on: SNB-19
K562 = tested on: K562
NCI/ADR-RES = tested on: NCI/ADR-RES
SK-OV-3 = tested on: SK-OV-3
RXF 393 = tested on: RXF 393
NCI-H226 = tested on: NCI-H226

## O=C(/C=C/c1ccc(Cl)cc1)Oc1ccc(/C=C2\CCCCC2=O)cc1
SK-MEL-5
  GI50: > 100 µM (inactive)
PC-3
  GI50: > 100 µM (inactive)
SW-620
  GI50: > 100 µM (inactive)
MCF7
  GI50: > 100 µM (inactive)
SF-268
  GI50: 69.7 µM (inactive)
TK-10
  GI50: > 100 µM (inactive)
SK-MEL-28
  GI50: > 100 µM (inactive)
LOX IMVI
  GI50: > 100 µM (inactive)
KM12
  GI50: > 100 µM (inactive)
UO-31
  GI50: > 100 µM (inactive)
HCT-116
  GI50: > 100 µM (inactive)
OVCAR-8
  GI50: > 100 µM (inactive)
MDA-MB-231
  GI50: > 100 µM (inactive)
U-251
  GI50: > 100 µM (inactive)
M14
  GI50: > 100 µM (inactive)
UACC-62
  GI50: > 100 µM (inactive)
RPMI-8226
  GI50: > 100 µM (inactive)
SN12C
  GI50: > 100 µM (inactive)
MDA-N
  GI50: > 100 µM (inactive)
NCI-H23
  GI50: > 100 µM (inactive)
HOP-62
  GI50: > 100 µM (inactive)
IGROV-1
  GI50: > 100 µM (inactive)
CCRF-CEM
  GI50: 55.5 µM (inactive)
Malme-3M
  GI50: > 100 µM (inactive)
OVCAR-5
  GI50: > 100 µM (inactive)
NCI-H522
  GI50: 50.8 µM (inactive)
MDA-MB-435
  GI50: > 100 µM (inactive)
NCI-H460
  GI50: > 100 µM (inactive)
OVCAR-3
  GI50: > 100 µM (inactive)
786-0
  GI50: > 100 µM (inactive)
COLO 205
  GI50: > 100 µM (inactive)
A498
  GI50: > 100 µM (inactive)
CAKI-1
  GI50: > 100 µM (inactive)
UACC-257
  GI50: > 100 µM (inactive)
HT-29
  GI50: 23 µM (inactive)
SF-539
  GI50: > 100 µM (inactive)
OVCAR-4
  GI50: > 100 µM (inactive)
HCC 2998
  GI50: > 100 µM (inactive)
Hs-578T
  GI50: > 100 µM (inactive)
ACHN
  GI50: > 100 µM (inactive)
HOP-92
  GI50: > 100 µM (inactive)
SK-MEL-2
  GI50: > 100 µM (inactive)
HCT-15
  GI50: > 100 µM
SF-295
  GI50: > 100 µM (inactive)
DU-145
  GI50: > 100 µM (inactive)
HL-60
  GI50: 50.7 µM (inactive)
MOLT-4
  GI50: 28.8 µM (inactive)
SR
  GI50: > 100 µM (inactive)
T47D
  GI50: > 100 µM (inactive)
EKVX
  GI50: > 100 µM (inactive)
A549
  GI50: > 100 µM (inactive)
SNB-75
  GI50: > 100 µM (inactive)
SNB-19
  GI50: > 10 µM (inactive)

## CSc1nc2c(N)ncnc2n1C
SK-MEL-5
  GI50: > 100 µM (inactive)
PC-3
  GI50: > 100 µM (inactive)
SW-620
  GI50: > 100 µM (inactive)
MCF7
  GI50: > 100 µM (inactive)
SF-268
  GI50: > 100 µM (inactive)
TK-10
  GI50: > 100 µM (inactive)
SK-MEL-28
  GI50: > 100 µM (inactive)
LOX IMVI
  GI50: > 100 µM (inactive)
KM12
  GI50: > 100 µM (inactive)
UO-31
  GI50: > 100 µM (inactive)
K562
  GI50: > 100 µM (inactive)
HCT-116
  GI50: > 100 µM (inactive)
OVCAR-8
  GI50: > 100 µM (inactive)
MDA-MB-231
  GI50: > 100 µM (inactive)
U-251
  GI50: > 100 µM (inactive)
M14
  GI50: > 100 µM (inactive)
UACC-62
  GI50: > 100 µM (inactive)
RPMI-8226
  GI50: > 100 µM (inactive)
SN12C
  GI50: > 100 µM (inactive)
MDA-N
  GI50: > 100 µM (inactive)
HOP-62
  GI50: > 100 µM (inactive)
IGROV-1
  GI50: > 100 µM (inactive)
CCRF-CEM
  GI50: > 100 µM (inactive)
Malme-3M
  GI50: > 100 µM (inactive)
OVCAR-5
  GI50: > 100 µM (inactive)
NCI/ADR-RES
  GI50: > 100 µM (inactive)
NCI-H522
  GI50: > 100 µM (inactive)
MDA-MB-435
  GI50: > 100 µM (inactive)
NCI-H460
  GI50: > 100 µM (inactive)
OVCAR-3
  GI50: > 100 µM (inactive)
786-0
  GI50: > 100 µM (inactive)
COLO 205
  GI50: > 100 µM (inactive)
A498
  GI50: > 100 µM (inactive)
CAKI-1
  GI50: > 100 µM (inactive)
UACC-257
  GI50: > 100 µM (inactive)
HT-29
  GI50: > 100 µM (inactive)
SF-539
  GI50: > 100 µM (inactive)
OVCAR-4
  GI50: > 100 µM (inactive)
HCC 2998
  GI50: > 100 µM (inactive)
Hs-578T
  GI50: > 100 µM (inactive)
ACHN
  GI50: > 100 µM (inactive)
SK-OV-3
  GI50: > 100 µM (inactive)
SK-MEL-2
  GI50: > 100 µM (inactive)
HCT-15
  GI50: > 100 µM
SF-295
  GI50: > 100 µM (inactive)
DU-145
  GI50: > 100 µM (inactive)
RXF 393
  GI50: > 100 µM (inactive)
MOLT-4
  GI50: > 100 µM (inactive)
T47D
  GI50: > 100 µM (inactive)
EKVX
  GI50: > 100 µM (inactive)
NCI-H226
  GI50: > 100 µM (inactive)
A549
  GI50: > 100 µM (inactive)
SNB-75
  GI50: 82.8 µM (inactive)
SNB-19
  GI50: > 100 µM (inactive)

Source: ChEMBL document CHEMBL1201862, “PubChem BioAssay data set” (2004)
